This passage reports IC50 results from patent US11274092B2, “Potassium channel inhibitors” (ACESION PHARMA ApS, priority 2016, dated 2022).

The target in this test is T1, human SK3 channel (hKCa2.3) (Homo sapiens, UniProt Q9UGI6).
T1 construct: expressed in transfected cells
The test can be described thus: Automated whole cell patch-clamp (QPatch 16 HT), inhibition of SK3 current. Format: cell-based. The conditions noted are these: HEK-293 cells stably expressing hKCa2.3; symmetrical K+ solutions, free calcium 400 nM; effects normalized to N-methyl bicuculline. In a few lines: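 HEK-293 cells stably expressing hKCa2.3, automated whole-cell patch clamp in symmetrical K+ (400 nM free intracellular Ca2+, pH 7.2; external pH 7.4). Held at 0 mV, ramps −80 to +80 mV (200 ms) every 5 s; increasing compound concentrations, currents run-down corrected and normalized to 100 μM N-methyl bicuculline; IC50 reported.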
A general note: In patch-clamp work, channel activity is measured electrically.
Broadly, the IC50 is the concentration that gives 50% inhibition. On to `O=C(CC(Nc1nc2c(CO)cccc2[nH]1)c1cccc(C(F)(F)F)c1)NCCOC(F)(F)F` (stereo not drawn) [Example 94, 3-{[4-(hydroxymethyl)-1H-1,3-benzodiazol-2-yl]amino}-N-[2-(trifluoromethoxy)ethyl]-3-[3-(trifluoromethyl)phenyl]propanamide], for which the IC50 is less than 10 µM.

With `CCc1cc(C(CC(=O)N(CC)CCO)Nc2nc3ccccc3[nH]2)ccc1F` (stereo not drawn) [Example 65, 3-[(1H-1,3-benzodiazol-2-yl)amino]-N-ethyl-3-(3-ethyl-4-fluorophenyl)-N-(2-hydroxyethyl)propanamide], the IC50 is less than 10 µM.

For `Cc1ncc(CNC(=O)CC(Nc2nc3ccccc3[nH]2)c2cccc(C(F)(F)F)c2)s1` (stereo not drawn) [Example 77, 3-[(1H-1,3-benzodiazol-2-yl)amino]-N-[(2-methyl-1,3-thiazol-5-yl)methyl]-3-[3-(trifluoromethyl)phenyl]propanamide], the IC50 is less than 10 µM.

As for `O=C(C(Nc1nc2ccccc2[nH]1)c1cccc(C(F)(F)F)c1)N1CCCCC1` (stereo not drawn) [Example 31, 2-[(1H-1,3-benzodiazol-2-yl)amino]-1-(piperidin-1-yl)-2-[3-(trifluoromethyl)phenyl]ethan-1-one], the IC50 is less than 10 µM.

On to `CN1CCN(C(=O)C(Nc2nc3ccccc3[nH]2)c2cccc(C(F)(F)F)c2)CC1` (single isomer, unassigned; (-)) [Example 27a, (−)2-[(1H-1,3-benzodiazol-2-yl)amino]-1-(4-methylpiperazin-1-yl)-2-[3-(trifluoromethyl)phenyl]ethan-1-one], for which the IC50 was in the range of 10 to 100 µM.

Take `CCN(CC#N)C(=O)CC(Nc1nc2c(CO)cccc2[nH]1)c1cccc(C(F)(F)F)c1` (stereo not drawn) [Example 53, N-(cyanomethyl)-N-ethyl-3-{[4-(hydroxymethyl)-1H-1,3-benzodiazol-2-yl]amino}-3-[3-(trifluoromethyl)phenyl]propanamide]: the IC50 was in the range of 10 to 100 µM.

In the case of `O=C(CC(Nc1nc2ccccc2[nH]1)c1cccc(C(F)(F)F)c1)NCCOCC(F)(F)F` (stereo not drawn) [Example 68, 3-[(1H-1,3-benzodiazol-2-yl)amino]-N-[2-(2,2,2-trifluoroethoxy)ethyl]-3-[3-(trifluoromethyl)phenyl]propanamide], the IC50 was less than 10 µM.

Regarding `CNCCN(C)C(=O)CC(Nc1nc2ccccc2[nH]1)c1cccc(C(F)(F)F)c1` (stereo not drawn) [Example 44, 3-[(1H-1,3-benzodiazol-2-yl)amino]-N-methyl-N-[2-(methylamino)ethyl]-3-[3-(trifluoromethyl)phenyl]propanamide], the half-maximal inhibitory concentration (IC50) lay within 10 to 100 µM.

In the case of `N#CCNC(=O)CC(Nc1nc2ccccc2[nH]1)c1cccc(C(F)(F)F)c1` (stereo not drawn) [Example 21, 3-[(1H-1,3-benzodiazol-2-yl)amino]-N-(cyanomethyl)-3-[3-(trifluoromethyl)phenyl]propanamide], the IC50 was less than 10 µM.

For `CN(CC#N)C(=O)CC(Nc1nc2c(CO)cccc2[nH]1)c1cccc(C(F)(F)F)c1` (stereo not drawn) [Example 50, N-(cyanomethyl)-3-{[4-(hydroxymethyl)-1H-1,3-benzodiazol-2-yl]amino}-N-methyl-3-[3-(trifluoromethyl)phenyl]propanamide], the IC50 lay in the range of 10 to 100 µM.

Regarding `CSCCNC(=O)CC(Nc1nc2ccccc2[nH]1)c1cccc(C(F)(F)F)c1` (stereo not drawn) [Example 1, 3-[(1H-1,3-benzodiazol-2-yl)amino]-N-[2-(methylsulfanyl)ethyl]-3-[3-(trifluoromethyl)phenyl]propanamide], the IC50 was less than 10 µM.

For the molecule `CN(CCCO)C(=O)CC(Nc1nc2ccccc2[nH]1)c1cccc(C(F)(F)F)c1` (stereo not drawn) [Example 17, 3-[(1H-1,3-benzodiazol-2-yl)amino]-N-(3-hydroxypropyl)-N-methyl-3-[3-(trifluoromethyl)phenyl]propanamide], the IC50 was less than 10 µM.
